Several values for one entry are separate records, joined by “and”; a condition that tells them apart may be missing. Equal values may be shown once. Read-outs that look alike come from different tables or passages of the source.
Legend:
ROCK-II(h) = ROCK-II(h) (Homo sapiens, UniProt O75116); details: for % Control (single replicate) / Activity (% Control): ATP 100 micromolar; for % Control (single replicate): individual replicates; for Activity (% Control): mean of duplicate
Procedure: ROCK II (purchased from Upstate, Lake Placid, N.Y.) activity is assayed in 20 mM MOPS, pH 7.2, 25 mM β-glycerophosphate, 5 mM EGTA, 1 mM sodium orthovanadate, 1 mM dithiothreitol with dephosphorylated myelin basic protein (MBP, 0.2 mg/ml) as substrate with or without addition of a reference Rho kinase inhibitor. Activity assay reactions are performed for 30 min at 30° C. in 50 μl volumes using radiolabeled [32P] ATP (from Perkin-Elmer). The concentrations of ATP and magnesium chloride are 100 μM and 75 mM respectively. Assay reactions are initiated by adding Mg2+/ATP to each reaction mixture and are terminated by spotting 40 μl of each reaction mixture onto phosphocellulose paper (P81 paper, Whatman), followed by washes in 0.75% phosphoric acid to remove ATP followed by drying. The spotted paper is placed in scintillation cocktail and counted to measure 32P incorporation. Radioactivity is measured using a scintillation counter. Percent activity for a particular concentration of inhibitor is calculated as 100*(a−b)/(c−b), where a=cpm (enzyme+inhibitor), b=cpm (autophosphorylation of substrate and kinase) and c=cpm (enzyme−inhibitor). A dose-response chart is prepared for each inhibitor compound evaluated, then an IC50 (inhibitor concentration at 50% inhibition) determination is made as a measure of the potency of the compound as an inhibitor of Rho kinase. A plot of the log of concentration of test inhibitor compound (x axis) and the percent inhibition of kinase activity (y axis) is prepared. […] Experiments are done in duplicate or triplicate. ROCK II and dephosphorylated myelin basic protein (MBP) can be purchased from Upstate (Lake Placid, N.Y.). ATP is from Boehringer Mannheim and [γ-32P] ATP is from Perkin-Elmer. ROCK-II(h) is human ROCK-II.
Kinase inhibitors frequently compete with ATP binding and are ATP-competitive. Drug concentration required for 50% inhibition (IC50) depends on the concentration of ATP used in the assays.
An IC50 value for a compound of this invention can be determined from a plot of concentration of compound of this invention versus kinase activity of ROCK-II(h). The IC50 value for a compound of this invention can be expressed in units of micromolar, nanomolar, picomolar, and the like.
In the table, the concentration of the rho kinase inhibitor is micromolar, CPM is counts per minute, and SD is standard deviation. The rho kinase inhibitor activity was tested in duplicate. In each case, the kinase activity is expressed as a percentage of that in control incubations. IC50 values were derived by PRISM at Upstate. ATP concentration was 100 micromolar.

ROCKI = ROCKI (Homo sapiens, UniProt Q13464); details: ATP 100 μM, duplicate
Procedure: Experiments were done in duplicate. ATP was present at 100 μM in the assay.
The values were expressed in a percentage of inhibition of each kinase. Experiments were done in duplicate. ATP was present at 100 μM in the assay.

HUVEC cells [1] = experiment: HUVEC capillary tube formation on ECMatrix; type: cell-based, human; details: for relative amount of tube formation: 15,000 HUVEC cells on ECMatrix, 6-8 h
Description: HUVEC cells will form capillary tubes when plated on protein substrates composed of proteins found in the extracellular matrix. Typical substrates useful for experiments with HUVEC cells are Matrigel, fibronectin or collagen. Matrigel is composed of several proteins that make up the extracellular matrix. Extracelluar matrix substrates can be plated in tissue culture dishes as 3-dimensional cell culture substrates. Another reagent that can be used as a substrate is ECMatrix™ (Chemicon International, Temecula, Calif.), a reconstituted basement membrane matrix of proteins derived from the Engelbreth Holm-Swarm (EHS) mouse tumor. This substrate gels rapidly at 22-35° C. Thus, ECMatrix™ is thawed overnight on ice or in +4° C. A 96-well plate is pre-chilled, and 100μl of the ECMatrix solution is added to each well. The plate is incubated at 37° C. for at least one hour to allow the matrix solution to solidify. The HUVEC cells are harvested and resuspended in a standard cell growth media supplemented with endothelial cell growth supplements. The presence of serum (0.5-10%) is optional. EGM (endothelial cell growth media) can be used. The HUVEC cells are plated at a density of 5×10^3 to 1×10^4 cells per well onto the surface of the polymerized ECMatrix™, and then incubated overnight in a tissue-culture incubator. Cellular network structures are fully developed by 12 to 18 h, with the first signs apparent after 5-6 h. After 24 h, the cells begin to undergo apoptosis. To study the effect of anti-angiogenic factors, they can be added at the time of cell plating. Optional tissue culture vary depending on the cell type, age, and media growth conditions. The tubes are inspected under an inverted light microscope at 40×-200× magnification. Since there is a lack of contrast of the cellular networks, the cultures can be stained with any of the common cell staining procedures such as Diff-Quick or Wright-Giemsa or crystal-violet. The total capillary tube length measurement method is used to quantify the results. The total length of all the capillary tubes in several (3-10) view-fields is measured by Northern Eclipse software.
Photos are representative of 5 separate experiments.
Tranilast is used as a positive control. For this experiment, 15,000 HUVEC cells were plated on ECMatrix™ and incubated for 6-8 h alone before quantification. Results are presented as mean± SEM for one experiment analyzed in duplicate. […] It is used as a positive control.

HUVEC cells [2] = experiment: Endothelial cell migration, Boyden chamber with VEGF; type: cell-based, human; details: 50 μM; 20 h; 10 ng/mL VEGF; fibronectin-coated transwells
Procedure: A common assay uses Boyden or Transwell chambers, a compartmentalized cell cultures system. Cells are plated in the upper compartment of the Transwell chamber, and the ability of a compound under evaluation to block cell migration through, for example the pores of a Fluoroblok membrane, to the bottom compartment is measured. […] Typically, a chemoattractant is added to the bottom well or compartment. In the case of endothelial cells, a useful chemoattractant is vascular endothelial growth factor (VEGF). […] Experiments can be performed in 24-well plates (individual insert or multiwell insert) or in 96-multiwell insert plates with appropriate correction for volume and cell density. […] Following incubation with the cell dye, fluorescence from invaded cells is read in a fluorescence plate reader with bottom reading capabilities at excitation/emission wavelengths of 485/530 nm without further manipulation. Only those labeled cells that have migrated through the pores of the Fluoroblok membrane will be detected.
The data may be expressed as either fluorescent units (FU) or as “fold migration”, i.e., the FU value of the cells migrating through the fibronectin coated insert membrane in response to a chemoattractant with inhibitor relative to the FU value of a control, i.e., without inhibitor. […]

HEC-1B cells = details: 72 hours incubation; different concentrations; Alamar Blue
Procedure: For this assay, cells are thawed and passaged at least one time before the experiment. Cells are grown in a culture dish in media supplemented with serum and supplements appropriate for the test cell line. When they reach logarithmic growth, the cells are trypsinized to detach them from the culture dish and are counted. The cell pellet is resuspended and adjusted to 2-5×10^4 cells/ml. A 96-well microplate is used for the experiment and cells are plated at a density of 1000 to 5000 cells/well in 100 μL of growth media. The seeding density is noted to ensure that the cells in the control wells are not overgrown after the total incubation time. […] At the end of the incubation period, the fluorescence intensity is read with a 96-well microplate reader (excitation 530-560 nm; emission 590 nm), with bottom reading. The fluorescence generated in the AlamarBlue™ assay can be stopped and stabilized by the addition of 3% SDS. […]
For each concentration of test article, a % growth is calculated using the following equation, wherein • T0=fluorescence units at the time of test article addition (time 0) • C=fluorescence units for control (no test article) • Ti=fluorescence unit for test article (different dilution)
Cadmium sulfate hydrate (CAD) was used as a positive control. Following treatment, the rate of proliferation was measured using the Alamar Blue assay.

[3] = system: Caki cells (human renal cancer line) subcutaneous tumors; details: 50 μL PBS with 40 μM E-23a injected into tumor every day for two weeks; 6 mice; vehicle control 304%
Procedure: An in vivo model to test anti-proliferative activity of test compounds is a subcutaneous (s.c.) tumor model. In this model, human cancer cells are seeded into mice by a subcutaneous injection. Typically immune-compromised mouse cell lines are used, such as CD-1 nude mice, to prevent a graft rejection response. The test compound is administered as a formulation in a pharmaceutically acceptable vehicle suitable for injection use, such as isotonic phosphate buffered saline (PBS), by injection into the tumor. Different dosing schedules can be tested and compared with mice receiving injection of vehicle control. Before implantation into an animal, tumor cells are expanded in their specific tissue culture medium. Medium is changed 2 to 3 times per week. […] The tumor growth is monitored twice a week. Tumor volume is determined with a digital caliper and calculated using the formula: width^2×length×0.5. The length is taken at the basis of the tumors between the two most distant points of the tumor mass, whereas the width is measured right-angled to the length. […] Tumor volume and animal body weight are recorded twice a week.
Caki cells, which are a human renal cancer line were grown in tissue culture. […] Tumors were evaluated after 2 weeks of treatment after the final injection.

Chain of ROCK-II(h) (O75116 whole entry): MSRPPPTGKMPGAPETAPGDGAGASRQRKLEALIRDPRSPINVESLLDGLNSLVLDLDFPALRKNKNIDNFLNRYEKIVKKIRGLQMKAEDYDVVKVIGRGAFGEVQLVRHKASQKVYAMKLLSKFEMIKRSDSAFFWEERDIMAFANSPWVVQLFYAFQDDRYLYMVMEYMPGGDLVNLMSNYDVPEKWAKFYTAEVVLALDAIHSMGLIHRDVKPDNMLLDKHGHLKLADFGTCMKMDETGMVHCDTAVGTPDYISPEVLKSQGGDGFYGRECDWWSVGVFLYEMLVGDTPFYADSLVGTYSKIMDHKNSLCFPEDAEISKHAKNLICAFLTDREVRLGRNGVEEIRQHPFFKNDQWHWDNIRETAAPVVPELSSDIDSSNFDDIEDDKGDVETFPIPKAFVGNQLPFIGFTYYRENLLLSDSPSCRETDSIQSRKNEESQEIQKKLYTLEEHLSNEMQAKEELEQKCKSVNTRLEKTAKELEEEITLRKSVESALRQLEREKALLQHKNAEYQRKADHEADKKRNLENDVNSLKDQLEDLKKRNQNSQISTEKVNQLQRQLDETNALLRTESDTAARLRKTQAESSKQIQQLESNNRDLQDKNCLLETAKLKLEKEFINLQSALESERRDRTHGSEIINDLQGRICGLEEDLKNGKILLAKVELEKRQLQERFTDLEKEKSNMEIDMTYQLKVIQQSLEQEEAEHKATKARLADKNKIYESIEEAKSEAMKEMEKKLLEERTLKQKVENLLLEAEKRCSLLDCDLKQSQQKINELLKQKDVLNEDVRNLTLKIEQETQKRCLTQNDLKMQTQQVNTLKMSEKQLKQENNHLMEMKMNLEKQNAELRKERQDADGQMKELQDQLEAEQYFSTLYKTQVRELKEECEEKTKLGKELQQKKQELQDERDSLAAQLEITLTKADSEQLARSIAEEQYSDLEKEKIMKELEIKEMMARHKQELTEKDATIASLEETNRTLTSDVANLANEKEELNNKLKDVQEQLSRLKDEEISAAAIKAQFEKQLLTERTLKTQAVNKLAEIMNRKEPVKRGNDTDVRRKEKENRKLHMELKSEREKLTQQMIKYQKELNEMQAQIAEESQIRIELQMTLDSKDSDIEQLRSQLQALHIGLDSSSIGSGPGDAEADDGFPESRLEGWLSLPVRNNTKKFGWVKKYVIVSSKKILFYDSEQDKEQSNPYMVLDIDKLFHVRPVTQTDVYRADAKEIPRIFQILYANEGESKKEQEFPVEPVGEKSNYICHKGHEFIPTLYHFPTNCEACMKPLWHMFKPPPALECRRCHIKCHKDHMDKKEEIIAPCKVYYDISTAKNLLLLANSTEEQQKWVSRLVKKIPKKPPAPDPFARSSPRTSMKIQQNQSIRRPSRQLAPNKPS
Chain of ROCKI (Q13464 whole entry): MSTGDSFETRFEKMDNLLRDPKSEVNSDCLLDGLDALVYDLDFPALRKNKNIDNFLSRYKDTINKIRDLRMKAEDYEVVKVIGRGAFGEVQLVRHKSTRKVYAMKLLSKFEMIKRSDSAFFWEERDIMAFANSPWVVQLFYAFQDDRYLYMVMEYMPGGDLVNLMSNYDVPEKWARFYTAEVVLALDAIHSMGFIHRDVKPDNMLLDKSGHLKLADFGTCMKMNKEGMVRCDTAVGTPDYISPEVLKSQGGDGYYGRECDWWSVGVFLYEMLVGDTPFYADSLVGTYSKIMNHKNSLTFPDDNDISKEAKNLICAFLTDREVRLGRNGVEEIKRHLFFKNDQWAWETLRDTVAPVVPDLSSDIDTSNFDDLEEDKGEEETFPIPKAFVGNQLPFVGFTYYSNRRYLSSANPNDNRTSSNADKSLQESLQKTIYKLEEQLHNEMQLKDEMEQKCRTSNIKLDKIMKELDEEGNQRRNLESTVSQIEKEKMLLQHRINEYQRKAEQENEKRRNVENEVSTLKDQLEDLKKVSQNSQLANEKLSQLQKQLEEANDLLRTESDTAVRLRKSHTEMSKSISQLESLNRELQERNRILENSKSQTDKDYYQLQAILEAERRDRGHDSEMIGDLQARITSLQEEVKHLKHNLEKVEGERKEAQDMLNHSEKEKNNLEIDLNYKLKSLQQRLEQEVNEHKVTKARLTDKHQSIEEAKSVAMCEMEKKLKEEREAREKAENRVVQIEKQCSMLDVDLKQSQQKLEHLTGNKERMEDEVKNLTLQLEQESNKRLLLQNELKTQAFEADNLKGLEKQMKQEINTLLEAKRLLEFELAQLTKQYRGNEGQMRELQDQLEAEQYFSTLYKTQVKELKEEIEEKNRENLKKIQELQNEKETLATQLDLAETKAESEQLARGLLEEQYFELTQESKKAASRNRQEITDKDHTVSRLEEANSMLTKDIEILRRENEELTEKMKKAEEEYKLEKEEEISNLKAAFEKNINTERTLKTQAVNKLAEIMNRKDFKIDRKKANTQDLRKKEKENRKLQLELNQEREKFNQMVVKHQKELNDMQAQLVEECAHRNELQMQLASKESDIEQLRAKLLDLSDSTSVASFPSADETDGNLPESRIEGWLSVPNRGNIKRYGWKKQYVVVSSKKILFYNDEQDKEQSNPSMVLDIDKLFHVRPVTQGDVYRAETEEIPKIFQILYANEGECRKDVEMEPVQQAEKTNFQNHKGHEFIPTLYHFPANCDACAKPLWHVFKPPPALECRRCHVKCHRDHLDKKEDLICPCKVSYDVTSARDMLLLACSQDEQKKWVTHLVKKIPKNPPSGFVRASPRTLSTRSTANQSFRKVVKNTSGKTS
Procedure for Caco-2 cells: After incubation, samples are taken from the apical and basolateral compartment and the concentration of the test compound is determined by LCMS (liquid chromatography/mass spectroscopy).
Stock cultures are sub-cultured every 7 days when cells have reached 80-90% confluency. Studies are conducted with Caco-2 cells, used between passage 21 to 40. Cells are plated on Transwell™ inserts at a density of 1×10^4 cells/well in 24-well culture plates. Cells are incubated at 37° C. under 5% CO2 atmosphere, and media (MEM Earles medium containing 10% FBS, 0.1 mM non-essential amino acids and 1 mM sodium pyruvate) are changed 3 times per week. Cells are used for permeability studies between 20 to 22 days after seeding. On the day of the assay, cell monolayers are washed 3 times. Each wash consists of aspirating liquid from the apical (A) and basolateral (B) sides, and adding 0.5 and 1 mL, respectively, of fresh Dulbecco's phosphate-buffered saline with Mg^2+ and Ca^2+, pH 7.4 (PBS). After the final wash, a volt-ohm-meter is used to determine the trans-epithelial electrical resistance (TEER), a measure of the integrity of the monolayer. Cells are not be used if the TEER values are less than 200 ohms/cm^2. Working solutions of the test compounds are prepared in PBS. […] For each test compound and standard, apical to basolateral (A to B) and basolateral to apical (B to A) transport is measured. The final volume on the basolateral side is 1 mL; the final volume on the apical side is 0.3 mL. The test compound working solution or radiolabeled standard solution is added to the ‘donor’ side. Blank buffer is added to the ‘acceptor’ side. […] The permeability of each compound and control is measured by sampling 200μL of medium from the acceptor compartment at time zero and following 60 minutes of incubation. […] A 3 mL aliquot of liquid scintillant is added to the vials, and disintegrations per minute (dpm) are determined in a liquid scintillation counter. […] The permeability of Lucifer Yellow is measured by sampling 100 μL of medium from the basolateral compartment following 60 minutes of incubation. […]

In the case of CC(N)C1CCN(S(=O)(=O)c2cccc3cnccc23)CC1.Cl.Cl (racemic) [E-23a, (R,S)-N-(5″-isoquinolinesulfonyl)-4-[ethan-1′-amino]piperidine dihydrochloride], the “% Control (single replicate)” value (ROCK-II(h); BA-1049 0.01 μM, dihydrochloride) is reported as 96 % Control and 104 % Control, the “Activity (% Control)” value (ROCK-II(h); BA-1049 0.01 μM) is reported as 100 % Control and the “% Control (single replicate)” value (ROCK-II(h); BA-1049 0.03 μM, dihydrochloride) is reported as 109 % Control and 86 % Control. The “Activity (% Control)” value (ROCK-II(h); BA-1049 0.03 μM) was 98 % Control, the “% Control (single replicate)” value (ROCK-II(h); BA-1049 0.1 μM, dihydrochloride) was 86 % Control and 102 % Control and the “Activity (% Control)” value (ROCK-II(h); BA-1049 0.1 μM) was 94 % Control. The “% Control (single replicate)” value (ROCK-II(h); BA-1049 0.3 μM, dihydrochloride) was 62 % Control and 74 % Control, the “Activity (% Control)” value (ROCK-II(h); BA-1049 0.3 μM) was 68 % Control and the “% Control (single replicate)” value (ROCK-II(h); BA-1049 1 μM, dihydrochloride) was 45 % Control and 50 % Control. For the same molecule, the “Activity (% Control)” value (ROCK-II(h); BA-1049 1 μM) was 48 % Control, the “% Control (single replicate)” value (ROCK-II(h); BA-1049 3 μM, dihydrochloride) was 25 % Control and 27 % Control and the “Activity (% Control)” value (ROCK-II(h); BA-1049 3 μM) was 26 % Control. For the same molecule, the “% Control (single replicate)” value (ROCK-II(h); BA-1049 10 μM, dihydrochloride) was 8 % Control and 16 % Control, the “Activity (% Control)” value (ROCK-II(h); BA-1049 10 μM) was 12 % Control and the “% Control (single replicate)” value (ROCK-II(h); BA-1049 30 μM) was 4 % Control. The “Activity (% Control)” value (ROCK-II(h); BA-1049 30 μM) was 4 % Control, the “% Control (single replicate)” value (ROCK-II(h); BA-1049 100 μM, dihydrochloride) was 0 % Control and 5 % Control and the “Activity (% Control)” value (ROCK-II(h); BA-1049 100 μM) was 3 % Control. The IC50 (ROCK-II(h); read-out: IC50, inhibition of ROCK-II(h), ATP 100 μM, duplicate, derived by PRISM) was 0.791 µM, the “percentage of inhibition of ROCK I” value (ROCKI; FIG. 5, compound at 10 μM) was 31% and the IC50 (ROCKI; read-out: IC50, inhibition of ROCKI) was 20.6 µM. For the same molecule, the “relative amount of tube formation” value (HUVEC cells [1]; 10 μM) was “approximately 40 % relative to control”, the “relative amount of tube formation” value (HUVEC cells [1]; 50 μM) was “approximately 35 % relative to control” and the “HUVEC tube formation relative to control (in words)” value (HUVEC cells [1]; E-23a 10 and 50 μM) was “substantially reduced”. The “migration, % of the amount observed with Ctl+VEGF” value (HUVEC cells [2]) was “approximately 40%”, the “proliferation of HEC-1B cells (in words)” value (HEC-1B cells) was “reduced proliferation” and the “mean tumor size increase, % of initial tumor volume” value [3] was “approximately 156 % of initial tumor volume”. The “B − A/A − B Papp ratio” value (Caco-2 cells; Caco-2 monolayer) was 1.31 and the “permeability (in words)” value (Caco-2 cells; Caco-2 permeability assay) was “good permeability”.

From patent publication US7572913B2, “4-substituted piperidine derivatives” (Bioaxone Therapeutique Inc., priority 2004, dated 2009)
